# In patent US12331046B2, “CTPS1 inhibitors and uses thereof” (Nimbus Clotho, Inc., priority 2020, dated 2025):
# “And” between values parts separate entries of the source, which are not always exact repeats. Equal values may be shown once.
# Biological target: human CTPS1 (Homo sapiens (Human), UniProt P17812)
# Experiment: hCTPS1 biochemical assay (ADP-Glo)
# Details: hCTPS1 25 nM, ATP 120 uM, UTP 160 uM, GTP 60 uM, L-Glutamine 100 uM, 25 degrees C
# Sequence of human CTPS1 (P17812 whole entry): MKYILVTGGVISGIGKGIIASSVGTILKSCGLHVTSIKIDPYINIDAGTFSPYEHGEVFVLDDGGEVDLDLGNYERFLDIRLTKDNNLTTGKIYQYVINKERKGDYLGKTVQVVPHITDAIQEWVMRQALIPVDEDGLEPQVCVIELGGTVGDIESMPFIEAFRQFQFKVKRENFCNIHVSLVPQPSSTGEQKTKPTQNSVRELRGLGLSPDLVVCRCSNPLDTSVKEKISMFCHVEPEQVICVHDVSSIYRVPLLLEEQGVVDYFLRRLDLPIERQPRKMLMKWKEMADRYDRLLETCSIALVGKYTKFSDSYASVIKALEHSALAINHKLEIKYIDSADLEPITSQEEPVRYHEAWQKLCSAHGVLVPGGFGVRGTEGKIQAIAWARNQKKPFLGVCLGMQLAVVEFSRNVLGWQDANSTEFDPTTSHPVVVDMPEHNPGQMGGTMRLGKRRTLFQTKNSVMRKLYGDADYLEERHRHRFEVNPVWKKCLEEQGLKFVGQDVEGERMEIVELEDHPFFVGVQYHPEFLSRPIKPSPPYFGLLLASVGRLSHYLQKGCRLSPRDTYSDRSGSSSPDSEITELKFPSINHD
row,Structure (SMILES),IC50
1,"CCOc1cncc(-c2ccc(NC(=O)[C@](F)(CC)c3cc(NS(=O)(=O)C4CC4)ccn3)nc2)n1 [I-259, (S)-2-(4-(cyclopropanesulfonamido)pyridin-2-yl)-N-(5-(6-ethoxypyrazin-2-yl)pyridin-2-yl)-2-fluorobutanamide]",< 100 nM
2,"CCOc1cncc(-c2ccc(C(=O)NC3(c4cccc(NS(=O)(=O)C(F)F)c4)CC3)c(F)c2)n1 [I-267, N-[1-[3-(difluoromethanesulfonamido)phenyl]cyclopropyl]-4-(6-ethoxypyrazin-2-yl)-2-fluorobenzamide]",< 100 nM
3,"O=C(NC1(c2csc(NS(=O)(=O)C3CC3)n2)CC1)c1ccc(-c2cnc3n2CCCC3)cc1 [I-260, N-[1-(2-cyclopropanesulfonamido-1,3-thiazol-4-yl)cyclopropyl]-4-[5H, 6H, 7H, 8H-imidazo[1,2-a]pyridin-3-yl]benzamide]",≥ 1000 nM
4,"CCOc1cncc(-c2cnc(C(=O)N[C@@H](CN3CCNCC3)c3cc(NS(=O)(=O)C4CC4)ccn3)s2)n1 [I-206, (S)—N-(1-(4-(cyclopropanesulfonamido)pyridin-2-yl)-2-(piperazin-1-yl)ethyl)-5-(6-ethoxypyrazin-2-yl)thiazole-2-carboxamide]",< 100 nM
5,"CCOc1cncc(-c2cnc(C(=O)N[C@H](c3cc(NS(=O)(=O)C4CC4)ccn3)[C@H]3C[C@@H](N(C)C)C3)s2)n1 (single isomer, unassigned) [I-105]",< 100 nM
6,CCOc1cncc(-c2ncc(C(=O)NCc3cc(NS(=O)(=O)C4CC4)ccn3)s2)n1 [I-32],< 100 nM
7,"CCOc1cncc(-c2ccc(C(=O)NCc3cccc(NS(=O)(=O)C4CC4)c3)nc2)n1 [I-18, N-(3-(cyclopropanesulfonamido)benzyl)-5-(6-ethoxypyrazin-2-yl)picolinamide]",100 to 1000 nM
8,"CCOc1cncc(-c2cnc(C(=O)N[C@@H](CCN3CCOCC3)c3cc(NS(=O)(=O)C4CC4)ccn3)s2)n1 [I-165, (S)—N-(1-(4-(cyclopropanesulfonamido)pyridin-2-yl)-3-morpholinopropyl)-5-(6-ethoxypyrazin-2-yl)thiazole-2-carboxamide]",< 100 nM
9,COc1cncc(-c2ccc(C(=O)NCc3cc(NS(=O)(=O)C4CC4)ccn3)nc2)n1 [I-24],< 100 nM
10,"CCOc1cncc(-c2cnc(C(=O)N[C@H](CN3CCCCC3)c3cc(NS(=O)(=O)C4CC4)ccn3)s2)n1 (single isomer, unassigned) [I-213]",< 100 nM
11,"CCOc1cncc(-c2cnc(C(=O)NCc3cc(NS(=O)(=O)C4CC4)ccn3)s2)c1 [I-242, N-((4-(cyclopropanesulfonamido)pyridin-2-yl)methyl)-5-(5-ethoxypyridin-3-yl)thiazole-2-carboxamide]",< 100 nM
12,"CCOc1cncc(-c2ccc(C(=O)NCc3cncc(NS(=O)(=O)C4CC4)c3)nc2)n1 [I-26, N-((5-(cyclopropanesulfonamido)pyridin-3-yl)methyl)-5-(6-ethoxypyrazin-2-yl) picolinamide]",< 100 nM
13,"CCOc1cncc(-c2ncc(C(=O)NCc3cccc(NS(=O)(=O)C(F)F)c3)s2)n1 [I-62, N-[[3-(difluoromethanesulfonamido)phenyl]methyl]-2-(6-ethoxypyrazin-2-yl)-1,3-thiazole-5-carboxamide]",< 100 nM
14,"CCOc1cncc(-c2ccc(C(=O)NCc3cc(NS(=O)(=O)CC(F)(F)F)ccn3)nc2)n1 [I-66, 5-(6-ethoxypyrazin-2-yl)-N-((4-((2,2,2-trifluoroethyl)sulfonamido)pyridin-2-yl)methyl)picolinamide]",< 100 nM
15,"CCOc1cncc(-c2cnc(C(=O)NC(CCN(C)C)c3cc(NS(=O)(=O)C4CC4)ccn3)s2)n1 (stereo not shown) [I-201, N-(1-(4-(cyclopropanesulfonamido)pyridin-2-yl)-3-(dimethylamino)propyl)-5-(6-ethoxypyrazin-2-yl)thiazole-2-carboxamide]",< 100 nM
16,CCOc1cncc(-c2nnc(C(=O)NCc3cc(NS(=O)(=O)C4CC4)ccn3)o2)n1 [I-57],≥ 1000 nM
17,CCOc1cncc(-c2cnc(C(=O)NC3(c4cc(NS(=O)(=O)C5CC5)ccn4)CCOCC3)s2)n1 [I-132],< 100 nM
18,"CCOc1cncc(-c2ccc(C(=O)NCc3cccc(NS(=O)(=O)C(F)F)c3)nc2)n1 [I-63, N-[[3-(difluoromethanesulfonamido)phenyl]methyl]-5-(6-ethoxypyrazin-2-yl)pyridine-2-carboxamide]",< 100 nM
19,"CCOc1cncc(-c2cnc(C(=O)N[C@@H](c3cc(NS(=O)(=O)C4CC4)ccn3)[C@H]3C[C@H](N(C)C)C3)s2)n1 (single isomer, unassigned) [I-107, N-((4-(cyclopropanesulfonamido)pyridin-2-yl)((1r, 3r)-3-(dimethylamino)cyclobutyl)methyl)-5-(6-ethoxypyrazin-2-yl)thiazole-2-carboxamide]",< 100 nM
20,"CCOc1cncc(-c2cnc(C(=O)N[C@H](C[C@H]3CCCCN3C)c3cc(NS(=O)(=O)C4CC4)ccn3)s2)n1 [I-145, N—((R)-1-(4-(cyclopropanesulfonamido)pyridin-2-yl)-2-((R)-1-methylpiperidin-2-yl)ethyl)-5-(6-ethoxypyrazin-2-yl)thiazole-2-carboxamide]",< 100 nM
21,"CCOc1cncc(-c2cnc(C(=O)N[C@@H](CN3CCN(C(C)C)CC3)c3cc(NS(=O)(=O)C4CC4)ccn3)s2)n1 (single isomer, unassigned) [I-118]",< 100 nM
22,"CCOc1cncc(-c2ccc3c(c2)C(=O)N(Cc2cc(NS(=O)(=O)C4CC4)ccn2)C3=O)n1 [I-78, N-(2-[[5-(6-ethoxypyrazin-2-yl)-1,3-dioxoisoindol-2-yl]methyl]pyridin-4-yl) cyclopropane Sulfonamide]",100 to 1000 nM

row,Structure (SMILES),IC50
1,CCOc1cncc(-c2cnc(C(=O)NC(CN3CCOCC3)c3cc(NS(=O)(=O)C4CC4)ccn3)s2)n1 (stereo not shown) [I-245],< 100 nM
2,"CCOc1cncc(-c2cnc(C(=O)N3CCNC[C@H]3c3ccnc(NS(=O)(=O)C4CC4)n3)s2)n1 [I-168, (S)—N-(4-(1-(5-(6-ethoxypyrazin-2-yl)thiazole-2-carbonyl)piperazin-2-yl)pyrimidin-2-yl)cyclopropanesulfonamide]",100 to 1000 nM
3,"CCOc1cncc(-n2ccc(C(=O)NC3(c4cccc(NS(=O)(=O)C(F)F)c4)CC3)n2)n1 [I-282, N-[1-[3-(difluoromethanesulfonamido)phenyl]cyclopropyl]-1-(6-ethoxypyrazin-2-yl)pyrazole-3-carboxamide]",< 100 nM and ≥ 1000 nM
4,CCOc1cncc(-c2cnc(C(=O)NC(CN3CCC3)c3cc(NS(=O)(=O)C4CC4)ccn3)s2)n1 (stereo not shown) [I-228],< 100 nM
5,CCOc1cncc(-c2cnc(C(=O)N[C@H](CN3[C@@H]4COC[C@H]3C4)c3cc(NS(=O)(=O)C4CC4)ccn3)s2)n1 [I-115],< 100 nM
6,"CCOc1cncc(-c2cnc(C(=O)N[C@@H](C)c3cccc(NS(=O)(=O)C(F)F)c3)s2)n1 [I-273, N-[(1S)-1-[3-(difluoromethanesulfonamido)phenyl]ethyl]-5-(6-ethoxypyrazin-2-yl)-1,3-thiazole-2-carboxamide]",< 100 nM
7,"CCOc1cncc(-c2ccc(C(=O)NC3(c4cccc(NS(=O)(=O)C(F)F)c4)CC3)nc2)n1 [I-265, N-[1-[3-(difluoromethanesulfonamido)phenyl]cyclopropyl]-5-(6-ethoxypyrazin-2-yl)pyridine-2-carboxamide]",< 100 nM
8,O=C(NCc1cc(NS(=O)(=O)C2CC2)ccn1)c1ncc(-c2cnc3ccc(Cl)cn23)s1 [I-170],100 to 1000 nM
9,CCOc1cncc(-c2cnc(C(=O)NCc3cc(NS(=O)(=O)C4CC4)ccn3)c(CN(C)C)c2)n1 [I-229],100 to 1000 nM
10,"C[C@H]1Cc2nc(C(=O)NCc3cc(NS(=O)(=O)C4CC4)ccn3)cnc2N(C2CCC2)C1 [I-263, (S)-5-cyclobutyl-N-((4-(cyclopropanesulfonamido)pyridin-2-yl)methyl)-7-methyl-5,6,7,8-tetrahydropyrido[2,3-b]pyrazine-2-carboxamide]",≥ 1000 nM
11,CCOc1cncc(-c2cnc(C(=O)NCc3cc(NS(=O)(=O)C4CC4)ccn3)s2)n1 [I-50],< 100 nM
12,"CCOc1cncc(-c2cnc(C(=O)NC(CCN(C)C)c3cccc(NS(=O)(=O)C4CC4)c3)s2)n1 (stereo not shown) [I-152, N-(1-(3-(cyclopropanesulfonamido)phenyl)-3-(dimethylamino)propyl)-5-(6-ethoxypyrazin-2-yl)thiazole-2-carboxamide]",< 100 nM
13,"CCOc1cncc(-c2cnc(C(=O)N[C@@H](CC3CCN(C)CC3)c3cc(NS(=O)(=O)C4CC4)ccn3)s2)n1 [I-99, (S)—N-(1-(4-(cyclopropanesulfonamido)pyridin-2-yl)-2-(1-methylpiperidin-4-yl)ethyl)-5-(6-ethoxypyrazin-2-yl)thiazole-2-carboxamide]",< 100 nM
14,"CCOc1cncc(-n2ccc(C(=O)N3CCC[C@@H]3c3cccc(NS(=O)(=O)C(F)F)c3)n2)n1 [I-79, N-[3-[(2R)-1-[1-(6-ethoxypyrazin-2-yl)pyrazole-3-carbonyl]pyrrolidin-2-yl]phenyl]-1,1-difluoromethanesulfonamide]",≥ 1000 nM
15,"O=C(NC1(c2csc(NS(=O)(=O)C3CC3)n2)CC1)c1cc2ccccc2cn1 [I-3, N-(1-(2-(cyclopropanesulfonamido)thiazol-4-yl)cyclopropyl)isoquinoline-3-carboxamide]",≥ 1000 nM
16,"CCOc1cncc(-c2ccc(C(=O)N3CCC[C@@H]3c3ccnc(NS(=O)(=O)C4CC4)n3)c(F)c2)n1 [I-285, N-[4-[(2R)-1-[4-(6-ethoxypyrazin-2-yl)-2-fluorobenzoyl]pyrrolidin-2-yl]pyrimidin-2-yl]cyclopropanesulfonamide]",100 to 1000 nM
17,CCOc1cncc(-c2ccc(C(=O)NCc3cncc(NS(=O)(=O)C4CC4)c3)cc2)n1 [I-36],< 100 nM
18,"CCOc1cncc(-c2ccc(NC(=O)Cc3cc(NS(=O)(=O)C4CC4)ccn3)nc2)n1 [I-40, 2-(4-(cyclopropanesulfonamido)pyridin-2-yl)-N-(5-(6-ethoxypyrazin-2-yl)pyridin-2-yl)acetamide]",< 100 nM
19,CCOc1cncc(-c2sc(C(=O)NC(CC)c3cc(NS(=O)(=O)C4CC4)ccn3)nc2C)n1 (stereo not shown) [I-227],< 100 nM
20,O=C(NCc1cc(NS(=O)(=O)C2CC2)ccn1)c1ccc(-c2cncc(C(F)(F)F)n2)cc1F [I-254],100 to 1000 nM
21,"CCOc1cncc(-c2cnc(C(=O)N[C@H](CN3CCC(N(C)C)CC3)c3cc(NS(=O)(=O)C4CC4)ccn3)s2)n1 (single isomer, unassigned) [I-103]",< 100 nM
